Measured values published in paper PMC8508980, “Design, Synthesis and Anticancer Profile of New 4-(1H-benzo[d]imidazol-1-yl)pyrimidin-2-amine-Linked Sulfonamide Derivatives with V600EBRAF Inhibitory Effect” (International Journal of Molecular Sciences, 2021).

What was measured:
V600EBRAF = target: T1, V600EBRAF (Homo sapiens, UniProt P15056, V600E); assay: Reaction Biology kinase HotSpot enzyme assay; type: biochemical; details: 1 µM ATP; for IC50: mean ± S.D. of two separate experiments; for % Inhibition at 1 µM over V600EBRAF / inhibition at 1 µM: single dose 1 µM, mean ± S.D. of two experiments; for inhibition at 1 µM: read-out: % Inhibition at 1 µM over V600EBRAF
T1 construct: purchased Reaction Biology Corp. (Kinase HotSpot service)
T1 sequence (P15056 whole entry V600E): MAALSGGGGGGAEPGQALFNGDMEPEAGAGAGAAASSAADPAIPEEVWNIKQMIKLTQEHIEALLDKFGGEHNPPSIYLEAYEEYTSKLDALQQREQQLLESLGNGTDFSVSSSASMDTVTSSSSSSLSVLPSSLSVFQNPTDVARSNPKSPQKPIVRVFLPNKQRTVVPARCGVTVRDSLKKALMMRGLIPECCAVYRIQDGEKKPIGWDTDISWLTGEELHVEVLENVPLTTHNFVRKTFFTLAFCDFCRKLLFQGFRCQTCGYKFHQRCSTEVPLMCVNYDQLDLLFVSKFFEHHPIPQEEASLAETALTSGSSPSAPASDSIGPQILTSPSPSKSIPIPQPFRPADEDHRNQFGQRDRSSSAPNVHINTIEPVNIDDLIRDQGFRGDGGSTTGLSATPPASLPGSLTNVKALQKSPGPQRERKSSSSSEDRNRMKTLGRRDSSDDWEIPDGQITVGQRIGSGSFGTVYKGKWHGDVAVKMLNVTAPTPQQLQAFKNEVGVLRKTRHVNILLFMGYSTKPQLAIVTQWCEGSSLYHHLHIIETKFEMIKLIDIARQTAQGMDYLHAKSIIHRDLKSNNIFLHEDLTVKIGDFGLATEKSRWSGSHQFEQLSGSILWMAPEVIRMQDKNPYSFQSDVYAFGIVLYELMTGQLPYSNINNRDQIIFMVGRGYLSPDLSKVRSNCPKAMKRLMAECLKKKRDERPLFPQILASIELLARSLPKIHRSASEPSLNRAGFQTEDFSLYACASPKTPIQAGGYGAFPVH
Experimental: Reaction Biology Corp. Kinase HotSpotTM service
(§1) Proﬁler Express for IC50 measurement. Assay protocol: In a ﬁnal reaction volume of 25 μL, kinase (5–10 mU) is incubated with 25 mM Tris pH 7.5, 0.02 mM EGTA, 0.66 mg/mL myelin basic protein, 10 mM magnesium acetate and [γ33P-ATP] (speciﬁc activity approx. 500 cpm/pmol, concentration as required). The reaction is initiated by the addition of the Mg-ATP mix. After incubation for 40 min at room temperature, the reaction is stopped by the addition of 5 μL of a 3% phosphoric acid solution. 10 μL of the reaction is then spotted onto a P30 ﬁltermat, and washed three times for 5 min in 75 mM phosphoric acid and once in methanol prior to drying and scintillation counting.

BRAF (wild-type) = target: T2, BRAF (wild-type) (Homo sapiens, UniProt P15056); assay: Reaction Biology kinase HotSpot enzyme assay; type: biochemical; details: 1 µM ATP; mean ± S.D. of two separate experiments
T2 construct: purchased Reaction Biology Corp. (Kinase HotSpot service)
T2 sequence (P15056 whole entry): as the sequence (P15056 whole entry V600E) above, with E600V counted along it
Experimental: The enzymatic assays were performed in Reaction Biology Corp. using the standard protocol at 1 µM ATP and threefold dilution factor (detailed procedure is found in the Supplementary Information page 52 s).
as §1, with “Reaction Biology Corp. Kinase HotSpotTM service http://www.reactionbiology.com was used for screening of compounds IC50 Proﬁler” for “Proﬁler”

CRAF = CRAF (Homo sapiens, UniProt P04049); assay: Reaction Biology kinase HotSpot enzyme assay; type: biochemical; details: 1 µM ATP; mean ± S.D. of two separate experiments; read-out: IC50 CRAF
Chain of CRAF (P04049 whole entry): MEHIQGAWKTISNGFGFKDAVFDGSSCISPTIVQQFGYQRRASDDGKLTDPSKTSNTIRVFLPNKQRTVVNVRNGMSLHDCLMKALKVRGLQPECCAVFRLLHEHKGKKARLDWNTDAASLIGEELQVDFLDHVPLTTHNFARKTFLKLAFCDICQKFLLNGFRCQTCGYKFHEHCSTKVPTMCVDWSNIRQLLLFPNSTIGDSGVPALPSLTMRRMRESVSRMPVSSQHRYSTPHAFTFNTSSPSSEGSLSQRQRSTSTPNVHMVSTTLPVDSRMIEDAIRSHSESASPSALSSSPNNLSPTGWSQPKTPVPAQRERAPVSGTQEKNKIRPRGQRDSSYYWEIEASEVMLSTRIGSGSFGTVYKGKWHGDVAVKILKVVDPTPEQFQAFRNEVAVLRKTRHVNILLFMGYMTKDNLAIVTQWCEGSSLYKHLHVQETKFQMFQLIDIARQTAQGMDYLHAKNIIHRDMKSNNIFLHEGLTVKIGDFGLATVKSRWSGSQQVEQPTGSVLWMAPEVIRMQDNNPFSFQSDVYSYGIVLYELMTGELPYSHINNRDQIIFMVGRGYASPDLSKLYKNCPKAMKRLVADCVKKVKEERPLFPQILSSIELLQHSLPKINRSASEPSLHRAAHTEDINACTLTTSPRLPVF
Experimental: as §1, with “Reaction Biology Corp. Kinase HotSpotTM service http://www.reactionbiology.com was used for screening of compounds IC50 Proﬁler” for “Proﬁler”

EKVX = assay: NCI 60 cell line screen; type: cell-based, human; details: Homo sapiens, Non-Small Cell Lung Cancer, read-out: Percent growth
Experimental: (§2) Anticancer profiling over a panel of 60 cancer cell lines was carried out at the National Cancer Institute (NCI), Bethesda, Maryland, USA, https://dtp.cancer.gov/discovery_development/nci-60/methodology.htm (Last visit 22 September 2021), using the standard procedure (detailed procedure is located in the Supplementary Information page 50 s).
(§3) NCI standard procedure for 60 cell lines assay
(§4) The human tumor cell lines of the cancer screening panel are grown in RPMI 1640 mediu m containing 5% fetal bovine serum and 2 mM L-glutamine. For a typical screening experiment, cells are inoculated into 96 well microtiter plates in 100 μL at plating densities ranging from 5,000 to 40,000 cells/well depending on the doubling time of individual cell lines. After cell inoculation, the microtiter plates are incubated at 37° C, 5 % CO2, 95 % air and 100 % relative humidity for 24 h prior to addition of experimental drugs.
(§5) After 24 h, two plates of each cell line are fixed in situ with TCA, to represent a measurement of the cell population for each cell line at the time of drug addition (Tz). Experimental drugs are solubilized in dimethyl sulfoxide at 400-fold the desired final maximum test concentration (10 µM) and stored frozen prior to use. At the time of drug addition, an aliquot of frozen concentrate is thawed and diluted to twice the desired final maximum test concentration with co mp lete medium containing 50 μg/ml gentamicin. Additional four, 10-fold or ½ log serial dilutions are made to provide a total of five drug concentrations plus control. Aliquots of 100 μl of these different drug dilutions are added to the appropriate microtiter wells already containing 100 μl of medium, resulting in the required final drug concentrations.
(§6) Following drug addition, the plates are incubated for an additional 48 h at 37°C, 5 % CO2, 95 % air, and 100 % relative humidity. For adherent cells, the assay is terminated by the addition of cold TCA. Cells are fixed in situ by the gentle addition of 50 μl of cold 50 % (w/v) TCA (final concentration, 10 % TCA) and incubated for 60 minutes at 4°C. The supernatant is discarded, and the plates are washed five times with tap water and air dried. Sulforhodamine B (SRB) solution (100 μl) at 0.4 % (w/v) in 1 % acetic acid is added to each well, and plates are incubated for 10 minutes at room temperature. After staining, unbound dye is removed by washing five times with 1 % acetic acid and the plates are air dried. Bound stain is subsequently solubilized with 10 mM trizma base, and the absorbance is read on an automated plate reader at a wavelength of 515 nm. For suspension cells, the methodology is the same except that the assay is terminated by fixing settled cells at the bottom of the wells by g ently adding 50 μl of 80 % TCA (final concentration, 16 % TCA). Using the seven absorbance measurements [time zero, (Tz), control growth, (C), and test growth in the presence of drug at the five concentration levels (Ti)], the percentage growth is calculated at each of the drug concentrations levels. Percentage growth inhibition is calculated as:
(§7) [(Ti-Tz)/(C-Tz)] x 100 for concentrations for which Ti>/=Tz
(§8) [(Ti-Tz)/Tz] x 100 for concentrations for which Ti<Tz.
(§9) Three dose response parameters are calculated for each experimental agent. Growth inhibition of […]
(§10) resulting in a 50% reduction in the net protein increase (as measured by SRB staining) in control cells during the drug incubation. The drug concentration resulting in total growth inhibition […]
(§11) (TGI) is calculated from Ti = Tz.

HOP-92 = assay: NCI 60 cell line screen; type: cell-based, human; details: for activity at 10 µM: Homo sapiens, HOP-92, Non-Small Cell Lung Cancer, read-out: Percent growth; for percent inhibition: HOP-92, NCI-60 heat map analysis
Experimental: as §2, §3, §4, §5, §6, §7, §8, §9, §10, §11

MOLT-4 = assay: NCI 60 cell line screen; type: cell-based, human; details: for activity at 10 µM: Homo sapiens, MOLT-4, Leukemia, read-out: Percent growth; for percent inhibition: MOLT-4, NCI-60 heat map analysis
Experimental: as §2, §3, §4, §5, §6, §7, §8, §9, §10, §11

NCI-H522 = assay: NCI 60 cell line screen; type: cell-based, human; details: Homo sapiens; NCI-H522, Non-Small Cell Lung Cancer; read-out: Percent growth
Experimental: as §2, §3, §4, §5, §6, §7, §8, §9, §10, §11

OVCAR-4 = assay: NCI 60 cell line screen; type: cell-based, human; details: for activity at 10 µM: Homo sapiens, OVCAR-4, Ovarian Cancer, read-out: Percent growth
Experimental: as §2, §3, §4, §5, §6, §7, §8, §9, §10, §11

PC-3 = assay: NCI 60 cell line screen; type: cell-based, human; details: for activity at 10 µM: Homo sapiens, PC-3, Prostate Cancer, read-out: Percent growth
Experimental: as §2, §3, §4, §5, §6, §7, §8, §9, §10, §11

SK-MEL-5 = assay: NCI 60 cell line screen; type: cell-based, human; details: for activity at 10 µM: Homo sapiens, SK-MEL-5, Melanoma, read-out: Percent growth; for percent inhibition: SK-MEL-5, NCI-60 heat map analysis
Experimental: as §2, §3, §4, §5, §6, §7, §8, §9, §10, §11

U251 = assay: NCI 60 cell line screen; type: cell-based, human; details: for activity at 10 µM: Homo sapiens, U-251, U251, CNS-Cancer, read-out: Percent growth
Experimental: as §2, §3, §4, §5, §6, §7, §8, §9, §10, §11

Row | Structure (SMILES) | IC50 (V600EBRAF) | % Inhibition at 1 µM over V600EBRAF (V600EBRAF) | inhibition at 1 µM (V600EBRAF) | IC50 (BRAF (wild-type)) | IC50 (CRAF) | activity at 10 µM (EKVX) | activity at 10 µM (HOP-92) | activity at 10 µM (MOLT-4) | activity at 10 µM (NCI-H522) | activity at 10 µM (OVCAR-4) | activity at 10 µM (PC-3) | activity at 10 µM (SK-MEL-5) | activity at 10 µM (U251) | percent inhibition (HOP-92) | percent inhibition (MOLT-4) | percent inhibition (OVCAR-4; OVCAR-4, NCI-60 heat map analysis) | percent inhibition (PC-3; PC-3, NCI-60 heat map analysis) | percent inhibition (SK-MEL-5) | percent inhibition (U251; U251, NCI-60 heat map analysis)
1 | O=S(=O)(NCCNc1nccc(-n2cnc3ccccc32)n1)c1ccccc1 [12a, N-(2-((4-(1H-benzo [d]imidazol-1-yl)pyrimidin-2-yl)amino)ethyl)benzenesulfonamide] | 1910 ± 140 nM | 30.35 ± 0.41% | 30% | 3250 ± 450 nM | 2980 ± 210 nM | 91.2% | 73.3% | 93.7% | 93.8% | 93.4% | 93.5% | 95.8% | 103% |  |  |  |  |  | 
2 | O=S(=O)(NCCNc1nccc(-n2cnc3ccccc32)n1)c1ccc(F)cc1 [12b, N-(2-((4-(1H-benzo [d]imidazol-1-yl)pyrimidin-2-yl)amino)ethyl)-4-fluorobenzenesulfonamide] | 740 ± 51 nM | 75.17 ± 0.27% | 75% | 1510 ± 220 nM | 1340 ± 190 nM | 85.2% | 82.3% | 90.5% | 71.8% | 72.3% | 91.3% | 78% | 99.5% |  |  |  |  |  | 
3 | O=S(=O)(NCCNc1nccc(-n2cnc3ccccc32)n1)c1ccc(Cl)cc1 [12c, N-(2-((4-(1H-benzo [d]imidazol-1-yl)pyrimidin-2-yl)amino)ethyl)-4-chlorobenzenesulfonamide] | 820 ± 24 nM | 70.55 ± 0.71% | 71% | 1380 ± 170 nM | 1490 ± 230 nM | 92.2% | 90.2% | 103% | 92.1% | 95.2% | 103% | 99.4% | 102% |  |  |  |  |  | 
4 | O=S(=O)(NCCNc1nccc(-n2cnc3ccccc32)n1)c1ccc(Br)cc1 [12d, N-(2-((4-(1H-benzo [d]imidazol-1-yl)pyrimidin-2-yl)amino)ethyl)-4-bromobenzenesulfonamide] | 910 ± 19 nM | 69.28 ± 0.51% | 69% | 1790 ± 150 nM | 2100 ± 180 nM | 83.4% | 74.2% | 95.9% | 87.2% | 82.2% | 93.8% | 89.1% | 98.6% |  |  |  |  |  | 
5 | O=S(=O)(NCCNc1nccc(-n2cnc3ccccc32)n1)c1ccc(C(F)(F)F)cc1 [12e, N-(2-((4-(1H-benzo [d]imidazol-1-yl)pyrimidin-2-yl)amino)ethyl)-4-(trifluoromethyl)benzenesulfonamide] | 620 ± 31 nM | 98.24 ± 0.44% | 98% | 1250 ± 95 nM | 1140 ± 88 nM | 34.7% | 54.5% | 45.2% | 38.2% | 28.4% | 45.5% | 8.48% | 42.4% | around 40% | 55% | 71% | 55% | 91% | more than 50%
6 | COc1ccc(S(=O)(=O)NCCNc2nccc(-n3cnc4ccccc43)n2)cc1 [12f, N-(2-((4-(1H-benzo [d]imidazol-1-yl)pyrimidin-2-yl)amino)ethyl)-4-methoxy benzenesulfonamide] | 980 ± 20 nM | 55.21 ± 0.52% | 55% | 1980 ± 120 nM | 1670 ± 210 nM | 89.2% | 75.4% | 93.3% | 84.4% | 84.3% | 97.5% | 92.2% | 103% |  |  |  |  |  | 
7 | Cc1ccc(S(=O)(=O)NCCNc2nccc(-n3cnc4ccccc43)n2)cc1 [12g, N-(2-((4-(1H-benzo [d]imidazol-1-yl)pyrimidin-2-yl)amino)ethyl)-4-methyl benzenesulfonamide] | 790 ± 42 nM | 82.11 ± 0.32% | 82% | 1530 ± 260 nM | 1480 ± 99 nM | 56.1% | 57.9% | 55.3% | 64.6% | 42.1% | 76.1% | 20.8% | 85.2% | around 40% | around 45% |  |  | 80% | 
8 | O=S(=O)(NCCCNc1nccc(-n2cnc3ccccc32)n1)c1ccccc1 [12h, N-(3-((4-(1H-benzo [d]imidazol-1-yl)pyrimidin-2-yl)amino)propyl)benzenesulfonamide] | 1120 ± 98 nM | 49.54 ± 0.61% | 50% | 2320 ± 110 nM | 2140 ± 78 nM | 88.9% | 84.8% | 77.2% | 82.7% | 74.5% | 89.2% | 60.2% | 98.2% |  |  |  |  | 40% | 
